Measured values as given in ChEMBL document CHEMBL1201862, “PubChem BioAssay data set” (2004).
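How tested: cells in 96-well plates exposed to compound for 48 hours at five concentrations. GI50 marks 50% less growth.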 Activity calls are given as the source filed them. No stated cut-off is given here; in the data, active = GI50 up to about 1.1 µM and inactive = higher.

Assays:
Assay in all cases: growth of human tumour cells (NCI), 48 h
A498 = test system: A498
BT-549 = test system: BT-549
CAKI-1 = test system: CAKI-1
CCRF-CEM = test system: CCRF-CEM
COLO 205 = test system: COLO 205
EKVX = test system: EKVX
HCT-116 = test system: HCT-116
LOX IMVI = test system: LOX IMVI
MDA-MB-435 = test system: MDA-MB-435
Malme-3M = test system: Malme-3M
NCI-H522 = test system: NCI-H522
NCI/ADR-RES = test system: NCI/ADR-RES
SK-OV-3 = test system: SK-OV-3
SN12C = test system: SN12C
SNB-19 = test system: SNB-19
SW-620 = test system: SW-620
U-251 = test system: U-251
UACC-257 = test system: UACC-257
SR = test system: SR

Clc1ccc(Nc2nn3c(CCCCCCCCc4nnc5sc(Nc6ccc(Cl)cc6)nn45)nnc3s2)cc1
GI50 (A498): > 100 µM (inactive)
GI50 (BT-549): > 100 µM (inactive)
GI50 (CAKI-1): > 100 µM (inactive)
GI50 (CCRF-CEM): 17.6 µM (inactive)
GI50 (COLO 205): > 100 µM (inactive)
GI50 (EKVX): > 100 µM (inactive)
GI50 (HCT-116): > 100 µM (inactive)
GI50 (LOX IMVI): > 100 µM (inactive)
GI50 (MDA-MB-435): > 100 µM (inactive)
GI50 (Malme-3M): > 100 µM (inactive)
GI50 (NCI-H522): > 100 µM (inactive)
GI50 (NCI/ADR-RES): > 100 µM (inactive)
GI50 (SK-OV-3): > 100 µM (inactive)
GI50 (SN12C): > 100 µM (inactive)
GI50 (SNB-19): 25.1 µM (inactive)
GI50 (SW-620): > 100 µM (inactive)
GI50 (U-251): 37 µM (inactive)
GI50 (UACC-257): > 100 µM (inactive)

O=C(c1cc2ccccc2cc1O)N1CCCCC1
GI50 (A498): 15.2 µM (inactive)
GI50 (BT-549): 35.2 µM (inactive)
GI50 (CAKI-1): 50.7 µM (inactive)
GI50 (CCRF-CEM): 14.5 µM (inactive)
GI50 (COLO 205): 32.7 µM (inactive)
GI50 (EKVX): 20.3 µM (inactive)
GI50 (HCT-116): 39.6 µM (inactive)
GI50 (LOX IMVI): 55.1 µM (inactive)
GI50 (MDA-MB-435): 33.3 µM (inactive)
GI50 (NCI/ADR-RES): 23.8 µM (inactive)
GI50 (SK-OV-3): 42.2 µM (inactive)
GI50 (SNB-19): 28.5 µM (inactive)
GI50 (SR): 16.7 µM (inactive)
GI50 (SW-620): 48 µM (inactive)
GI50 (U-251): 52.4 µM (inactive)
GI50 (UACC-257): 53 µM (inactive)

COc1cc2c(/C=C3/C(=O)Nc4ccc(O)cc43)c(Cl)[nH]c2cc1C
GI50 (A498): 11.4 µM (inactive)
GI50 (BT-549): 0.139 µM (active)
GI50 (CAKI-1): 0.0893 µM (active)
GI50 (CCRF-CEM): 0.0462 µM (active)
GI50 (COLO 205): 0.192 µM (active)
GI50 (EKVX): 0.679 µM (active)
GI50 (HCT-116): 0.0897 µM (active)
GI50 (LOX IMVI): 0.0775 µM (active)
GI50 (MDA-MB-435): < 0.0137 µM (active)
GI50 (Malme-3M): 0.0398 µM (active)
GI50 (NCI-H522): 0.146 µM (active)
GI50 (NCI/ADR-RES): 0.249 µM (active)
GI50 (SK-OV-3): 0.0627 µM (active)
GI50 (SN12C): 0.197 µM (active)
GI50 (SNB-19): 0.146 µM (active)
GI50 (SW-620): 0.0955 µM (active)
GI50 (U-251): 0.0521 µM (active)
GI50 (UACC-257): 0.615 µM (active)

O=C(SC1=NCCN1)c1cccc2ccccc12
GI50 (A498): > 100 µM (inactive)
GI50 (BT-549): 64.7 µM (inactive)
GI50 (CAKI-1): > 100 µM (inactive)
GI50 (CCRF-CEM): 21.8 µM (inactive)
GI50 (COLO 205): > 100 µM (inactive)
GI50 (EKVX): 28.3 µM (inactive)
GI50 (HCT-116): 41 µM (inactive)
GI50 (LOX IMVI): > 100 µM (inactive)
GI50 (MDA-MB-435): 53.5 µM (inactive)
GI50 (Malme-3M): 78.9 µM (inactive)
GI50 (NCI-H522): 19.5 µM (inactive)
GI50 (NCI/ADR-RES): 31.6 µM (inactive)
GI50 (SK-OV-3): 44.5 µM (inactive)
GI50 (SN12C): 64.6 µM (inactive)
GI50 (SNB-19): > 100 µM (inactive)
GI50 (SW-620): 33.8 µM (inactive)
GI50 (U-251): 45.5 µM (inactive)
GI50 (UACC-257): 28.9 µM (inactive)

COc1ccc(CCNC(=O)Cc2ccccc2CCO)cc1OC
GI50 (A498): > 100 µM (inactive)
GI50 (BT-549): > 100 µM (inactive)
GI50 (CAKI-1): > 100 µM (inactive)
GI50 (CCRF-CEM): > 100 µM (inactive)
GI50 (COLO 205): > 100 µM (inactive)
GI50 (EKVX): > 100 µM (inactive)
GI50 (HCT-116): > 100 µM (inactive)
GI50 (MDA-MB-435): > 100 µM (inactive)
GI50 (NCI-H522): > 100 µM (inactive)
GI50 (NCI/ADR-RES): > 100 µM (inactive)
GI50 (SK-OV-3): > 100 µM (inactive)
GI50 (SN12C): > 100 µM (inactive)
GI50 (SNB-19): 27.4 µM (inactive)
GI50 (SR): > 100 µM (inactive)
GI50 (SW-620): > 100 µM (inactive)
GI50 (U-251): > 100 µM (inactive)
GI50 (UACC-257): > 100 µM (inactive)

CN1CN(c2ccccc2)C2(CCN(Cc3csc4ccccc34)CC2)C1=O
GI50 (BT-549): 7.35 µM (inactive)
GI50 (CAKI-1): 7.45 µM (inactive)
GI50 (CCRF-CEM): 17.5 µM (inactive)
GI50 (COLO 205): 11.1 µM (inactive)
GI50 (EKVX): 7.53 µM (inactive)
GI50 (HCT-116): 5.35 µM (inactive)
GI50 (LOX IMVI): 11.8 µM (inactive)
GI50 (MDA-MB-435): 14.3 µM (inactive)
GI50 (Malme-3M): 17.2 µM (inactive)
GI50 (NCI-H522): 9.23 µM (inactive)
GI50 (NCI/ADR-RES): 8.97 µM (inactive)
GI50 (SK-OV-3): 38.2 µM (inactive)
GI50 (SN12C): 13.5 µM (inactive)
GI50 (SNB-19): 38.4 µM (inactive)
GI50 (SR): 4.45 µM (inactive)
GI50 (SW-620): 13.3 µM (inactive)
GI50 (U-251): 8.55 µM (inactive)
GI50 (UACC-257): 13.2 µM (inactive)

Cc1cn(CCCCOC(=O)NC(CCCNC(N)=O)C(=O)O)c(=O)[nH]c1=O (stereo not given)
GI50 (BT-549): > 100 µM (inactive)
GI50 (CAKI-1): > 100 µM (inactive)
GI50 (CCRF-CEM): > 100 µM (inactive)
GI50 (COLO 205): > 100 µM (inactive)
GI50 (EKVX): > 100 µM (inactive)
GI50 (HCT-116): > 100 µM (inactive)
GI50 (LOX IMVI): > 100 µM (inactive)
GI50 (MDA-MB-435): > 100 µM (inactive)
GI50 (NCI/ADR-RES): > 100 µM (inactive)
GI50 (SK-OV-3): > 100 µM (inactive)
GI50 (SN12C): > 100 µM (inactive)
GI50 (SNB-19): > 100 µM (inactive)
GI50 (SR): > 100 µM (inactive)
GI50 (SW-620): > 100 µM (inactive)
GI50 (U-251): > 100 µM (inactive)
GI50 (UACC-257): > 100 µM (inactive)

O=C(c1ccsc1)c1nccc2c1cnc1ccccc12
GI50 (A498): 75 µM (inactive)
GI50 (BT-549): > 100 µM (inactive)
GI50 (CAKI-1): > 100 µM (inactive)
GI50 (CCRF-CEM): > 100 µM (inactive)
GI50 (COLO 205): > 100 µM (inactive)
GI50 (EKVX): 15.6 µM (inactive)
GI50 (HCT-116): 62.1 µM (inactive)
GI50 (LOX IMVI): > 100 µM (inactive)
GI50 (MDA-MB-435): > 100 µM (inactive)
GI50 (Malme-3M): 65.5 µM (inactive)
GI50 (NCI-H522): 12.7 µM (inactive)
GI50 (NCI/ADR-RES): > 100 µM (inactive)
GI50 (SK-OV-3): 54.8 µM (inactive)
GI50 (SN12C): > 100 µM (inactive)
GI50 (SNB-19): 53.5 µM (inactive)
GI50 (SW-620): > 100 µM (inactive)
GI50 (U-251): 85.1 µM (inactive)
GI50 (UACC-257): 45.2 µM (inactive)

CCN(CC)CCn1c(=O)c2cccnc2n2c3c(=O)n(C)c(=O)n(C)c3nc12
GI50 (BT-549): > 100 µM (inactive)
GI50 (CAKI-1): 67.9 µM (inactive)
GI50 (CCRF-CEM): 64.6 µM (inactive)
GI50 (COLO 205): 70.3 µM (inactive)
GI50 (EKVX): > 100 µM (inactive)
GI50 (HCT-116): 47.8 µM (inactive)
GI50 (MDA-MB-435): > 100 µM (inactive)
GI50 (Malme-3M): 65.2 µM (inactive)
GI50 (NCI-H522): > 100 µM (inactive)
GI50 (NCI/ADR-RES): > 100 µM (inactive)
GI50 (SK-OV-3): > 100 µM (inactive)
GI50 (SN12C): > 100 µM (inactive)
GI50 (SNB-19): > 100 µM (inactive)
GI50 (SR): 38.5 µM (inactive)
GI50 (SW-620): 76.9 µM (inactive)
GI50 (U-251): > 100 µM (inactive)
GI50 (UACC-257): > 100 µM (inactive)

CC(=O)O[C@H]1CC[C@H]2[C@@H]3CCC4=CC(=O)C=C[C@]4(O)[C@H]3CC[C@]12C
GI50 (A498): 42.8 µM (inactive)
GI50 (BT-549): 43 µM (inactive)
GI50 (CAKI-1): > 55.1 µM (inactive)
GI50 (CCRF-CEM): 13.5 µM (inactive)
GI50 (COLO 205): 22.4 µM (inactive)
GI50 (EKVX): 31.7 µM (inactive)
GI50 (HCT-116): 21.9 µM (inactive)
GI50 (LOX IMVI): 12.9 µM (inactive)
GI50 (MDA-MB-435): 16.4 µM (inactive)
GI50 (NCI/ADR-RES): 12 µM (inactive)
GI50 (SN12C): > 71.9 µM (inactive)
GI50 (SNB-19): 71.6 µM (inactive)
GI50 (SR): 0.738 µM (active)
GI50 (SW-620): 25.5 µM (inactive)
GI50 (U-251): 46 µM (inactive)
GI50 (UACC-257): 18.4 µM (inactive)

COc1ccc(-n2sc3ncc(C)cc3c2=O)cc1
GI50 (BT-549): 19.4 µM (inactive)
GI50 (CCRF-CEM): 10.6 µM (inactive)
GI50 (COLO 205): 16.1 µM (inactive)
GI50 (EKVX): 18.3 µM (inactive)
GI50 (HCT-116): 18.3 µM (inactive)
GI50 (LOX IMVI): > 10 µM (inactive)
GI50 (MDA-MB-435): 18.8 µM (inactive)
GI50 (Malme-3M): 18.5 µM (inactive)
GI50 (NCI-H522): 20.6 µM (inactive)
GI50 (NCI/ADR-RES): 26.5 µM (inactive)
GI50 (SK-OV-3): 39.8 µM (inactive)
GI50 (SN12C): 16.1 µM (inactive)
GI50 (SNB-19): > 100 µM (inactive)
GI50 (SR): 35.4 µM (inactive)
GI50 (SW-620): 33.8 µM (inactive)
GI50 (U-251): 22.4 µM (inactive)

COc1ccc2c(c1)C1=NCCN(CCN(C)C)c3ccc([N+](=O)[O-])c(c31)N2
GI50 (A498): 1.59 µM (inactive)
GI50 (BT-549): 0.815 µM (active)
GI50 (CAKI-1): 0.56 µM (active)
GI50 (CCRF-CEM): 0.258 µM (active)
GI50 (EKVX): 0.736 µM (active)
GI50 (HCT-116): 0.116 µM (active)
GI50 (LOX IMVI): 0.351 µM (active)
GI50 (MDA-MB-435): 0.627 µM (active)
GI50 (Malme-3M): 0.431 µM (active)
GI50 (NCI/ADR-RES): 0.957 µM (active)
GI50 (SK-OV-3): 0.259 µM (active)
GI50 (SN12C): 0.568 µM (active)
GI50 (SNB-19): 0.492 µM (active)
GI50 (SR): 0.404 µM (active)
GI50 (SW-620): 0.252 µM (active)
GI50 (U-251): 0.649 µM (active)
GI50 (UACC-257): 1.38 µM (inactive)
